Type in all cases: in vivo
Experiment [1] has as its system ECHCO (Echinochloa colonum). The experiment is described as follows: Post emergence treatment, herbicidal activity against ECHCO. The source says: (§1) Synergism can be described as an interaction where the combined effect of two or more compounds is greater than the sum of the individual effects of each of the compounds. The presence of a synergistic effect in terms of percent control, between two mixing partners (X and Y) can be calculated using the Colby equation (Colby, S. R., 1967, Calculating Synergistic and Antagonistic Responses in Herbicide Combinations, Weeds, 15, 21-22): When the observed combined control effect is greater than the expected (calculated) combined control effect (E), then the combined effect is synergistic. […] However, the weed control afforded by the compounds, mixtures or compositions is not limited to these species. The analysis of synergism or antagonism between the mixtures or compositions was determined using Colby's equation. Analogously, the Colby's equation can be used to determine synergism of 3-way and higher mixtures. Post Emergence Treatment by the Mixture of Imazethapyr+Cycloxydim Post Emergence Treatment by the Mixture of (Imazethapyr+Imazamox)+Cycloxydim

The test system of experiment [2] is BRAPL (Brachiaria plantaginea). As to the kind of experiment: Post emergence treatment, herbicidal activity against BRAPL. Particulars: Example 2, post emergence; Cycloxydim 3 g ai/ha.
Description: as §1, with “of” for “of Imazethapyr+Cycloxydim Post Emergence Treatment by the Mixture of”

Another experiment deals with LEFFA (Leptochloa fusca). The experiment is described as follows: Post emergence treatment, herbicidal activity against LEFFA. The note with it: Example 1, post emergence.
Description: as §1, with “Imazethapyr+Cycloxydim” for “Imazethapyr+Cycloxydim Post Emergence Treatment by the Mixture of (Imazethapyr+Imazamox)+Cycloxydim”

Another experiment deals with ORYSA (Orysa sativa). The experiment is described as follows: Post emergence treatment, herbicidal activity against ORYSA.
Description: as §1

For experiment [3], the system named is PHACA (Phalaris canariensis). The experiment is described as follows: Post emergence treatment, herbicidal activity against PHACA. The note with it: Example 2, post emergence.
Description: as §1, with “of” for “of Imazethapyr+Cycloxydim Post Emergence Treatment by the Mixture of”

[4] abbreviates: Example 1, post emergence, Cycloxydim 6 g ai/ha.
Where [5] appears, read: Example 1, post emergence, Imazethapyr 7.5 g ai/ha.

In the case of `CCCC(=NOCC)C1=C(O)CC(C2CCCSC2)CC1=O` (racemic) [Cycloxydim, (5RS)-2-[(EZ)-1-(Ethoxyimino)butyl]-3-hydroxy-5-[(3RS)-thian-3-yl]cyclohex-2-en-1-one], the “Herbicidal activity against ECHCO, Found” value amounted to 50 in experiment [1] (setting [4]) and 0 in experiment [1] (Example 2, post emergence, Cycloxydim 3 g ai/ha). Besides, in experiment [2], the “Herbicidal activity against BRAPL, Found” value stood at 0. Besides, the “Herbicidal activity against LEFFA, Found” value in the experiment with LEFFA (Leptochloa fusca) (Cycloxydim 6 g ai/ha) is 40. Besides, the “Herbicidal activity against ORYSA, Found” value stood at 20 in the experiment with ORYSA (Orysa sativa) (setting [4]) and 20 with ORYSA (Orysa sativa) (Example 2, post emergence, Cycloxydim 6 g ai/ha). Besides, the “Herbicidal activity against PHACA, Found” value is 0 in experiment [3] (the 3rd table, Cycloxydim 3 g ai/ha); 0 in experiment [3] (the 5th table, Cycloxydim 3 g ai/ha); 60 in experiment [3] (Cycloxydim 6 g ai/ha).

As to `CCc1cnc(C2=NC(C)(C(C)C)C(=O)N2)c(C(=O)O)c1` (racemic) [Imazethapyr, 5-ethyl-2-[(RS)-4-isopropyl-4-methyl-5-oxo-2-imidazolin-2-yl]nicotinic acid], the “Herbicidal activity against ECHCO, Found” value in experiment [1] (setting [5]) came to 85. The “Herbicidal activity against LEFFA, Found” value with LEFFA (Leptochloa fusca) (Imazethapyr 7.5 g ai/ha) is on record as 55. Moreover, in the experiment on ORYSA (Orysa sativa) (setting [5]), the “Herbicidal activity against ORYSA, Found” value is recorded as 50.
